Assay results published in patent US7592003B2, “Regulation of toll-like receptors on stem cells” (Oklahoma Medical Research Foundation, priority 2005, dated 2009).

Test system: CLP
Assay: Serum-free, stromal cell-free culture of CLP with SCF, FL and IL-7, CD19/Mac-1 flow cytometry
Format: cell-based, mouse
Protocol: FIGS. 6A-D—TLR stimulation allows lymphoid biased progenitors to produce myeloid dendritic cells at the expense of B lymphopoiesis. (FIG. 6A) Sorted CLP (5,000/well) from C57BL/6 or MyD88^−/− mice were stimulated in X-VIVO15 with medium alone, LPS (10 μg/ml) or Pam3CSK4 (100 ng/ml) plus SCF, FL and IL-7. After 7 days in culture, cells were analyzed by flow cytometry for expression of CD19and Mac-1 (left). The bar graphs depict cell yields for CD19^+ cells or Mac-1^+ cells (right) and the data represent mean values with standard deviations from triplicate cultures (*P<0.02). The results are representative of those obtained in five independent experiments. (FIG. 6B) Subsets of the recovered cells described in FIG. 6A were sorted and used to prepare Giemsa stained slides. (FIG. 6C) Cultured cells from C57BL/6 mice were also analyzed by flow cytometry for expression of Gr-1 and CD11c. (FIG. 6D) Sorted CLP from C57BL/6 mice were cultured in the presence of SCF, FL and IL-7 with a range of concentrations of LPS or combination of recombinant mouse CD14-Fc protein (1 μg/ml) plus LPS. After 7 days in culture, cells were analyzed by flow cytometry for expression of CD19 and Mac-1 (left). The bar graph depicts cell yields for CD19^+ cells or Mac-1^+ cells (right). Data represent mean values with standard deviations from triplicate cultures (*P<0.003). […]

With Pam3CSK4 the “Phenotype (CD11c, Gr-1) of cells produced from CLP” value (7 days) was “Gr-1^− but less homogenous” and the “Cell types emerging from CLP (CD19+ vs Mac-1+)” value (with SCF, FL and IL-7, 7 days) was “a mixture of the two cell types”.
